Source: patent publication US10976312B2, “Compositions and methods for capture of cellular targets of bioactive agents” (Promega Corporation, priority 2012, dated 2021)

Assays:
Type in all cases: cell-based
[1] = system: intracellular HDAC activity; assay: Intracellular HDAC activity, non-lytic HDAC-Glo I/II assay, HEK293 and K562 cells (Example 10); details: 2 hours treatment, relative to SAHA
Procedure: HEK293 cells were plated in a 96-well plate at 1×10^5 cell/ml in DMEM+10% serum, and 24 hours later, the media was replaced with serum free DMEM media. K562 cells were plated in serum free RPMI 1640 media into wells of a 96-well plate at 2×10^5 cells/ml. Cells were treated with serial dilutions of SAHA or PBI-5040 (SAHA-chloroalkane) for 2 hours and then tested for intracellular HDAC activity using the non-lytic HDAC-Glo™ I/II assay (Promega Corporation) according to manufacturer's instructions. […] The ˜2-fold reduction in SAHA potency due to the chloroalkane modification indicates minimal impact of the chloroalkane on cellular permeability or potency.

[2] = system: intracellular HDAC activity; assay: Intracellular HDAC activity, non-lytic HDAC-Glo I/II assay, K562 cells (Example 12); details: 2 hours treatment
Procedure: K562 cells were plated in serum free RPMI 1640 media into wells of a 96-well plate at 2×10^5 cells/ml. Cells were then treated with serial dilution of SAHA, PBI-5040 (SAHA-chloroalkane) or PBI 5475 (SAHA-biotin) for 2 hours and then tested for intracellular HDAC activity using the non-lytic HDAC-Glo™ I/II assay (Promega Corporation) according to manufacturer's instructions.

[3] = system: HDAC1, HDAC2, HDAC3, HDAC6, HDAC8; assay: Endogenous target pull-down from K562 cells, western blot (Example 13); details: 20 uM conjugate
Procedure: K562 cells were plated in 150 mm dishes at 5×10^7 cells/dish. A final concentration of 20 uM SAHA chloroalkane (PBI-5040) or PBI-5475 (SAHA-biotin) was added to 2 dishes of cells while 2 other dishes of cells were not treated with the conjugated drug (control). Following equilibrium binding of 2 hours, the media was removed, the cells quickly washed with PBS and lysed in detergent-based lysis buffer for 10 minutes and centrifuged at 3000×g for 1 minute. The cleared lysates treated with PBI-5040, as well as the cleared lysates of the control cells, were added to 75 ul of settled paramagnetic HALTOG beads. The cleared lysates of the cells treated with PBI-5475, as well as the cleared lysate of the control cells, were added to 75 ul of settled paramagnetic Streptavidin beads (GE). Following 15 minutes of binding, the unbound fraction was removed, beads were washed 3×, and the captured targets specifically released from the beads by competition with 400 μM unconjugated SAHA for 60 minutes. The released targets were subjected to western blot analysis (FIG. 13) with anti HDAC1 antibody (ABCAM); anti HDAC2 antibody (ABCAM); anti HDAC6 antibody (Millipore); anti HDAC3 antibody (Thermo Fisher) and anti HDAC8 antibody (Rockland/Promega).

[4] = system: HDAC1, HDAC2, HDAC3, HDAC6, HDAC8; assay: Endogenous target pull-down from HEK293 cells, western blot and mass spec (Example 11); details: 20 uM conjugate
Procedure: HEK293 cells were plated in 100 mm dishes at 2×10^5 cells/ml. Forty-eight hours post plating, a final concentration of 20 uM SAHA-chloroalkane (PBI-5040) was added to 3 of the dishes (1×10^7 cells/dish), while 3 other dishes were not treated with the conjugated drug (control). Following equilibrium binding for 2 hours, the media was removed, the cells quickly washed with PBS, lysed in a detergent-based lysis buffer for 10 minutes and centrifuged at 3000×g for 1 minute. The cleared lysates were than added to 75 ul of settled paramagnetic HALOTAG beads and incubated with shaking for 15 minutes. Following binding, the unbound fraction was removed, the HALOTAG paramagnetic beads were washed 3× (wash buffer—50 mM HEPES pH7.5, 150 mM NaCl and 0.01% IGEPAL), and the captured targets specifically released from the beads by competition with 400 μM unconjugated SAHA for 60 minutes. The released targets were subjected to mass spec analysis (FIG. 11B) as well as western blot analysis (FIG. 1-A) with anti HDAC1 antibody (ABCAM); anti HDAC2 antibody (ABCAM); anti HDAC6 antibody (Millipore); anti HDAC3 antibody (Thermo Fisher) and anti HDAC8 antibody (Rockland/Promega).

DHFR = biological target: T1, DHFR (Homo sapiens, UniProt P00374); assay: Endogenous target pull-down from HEK293 cells, western blot and mass spec (Example 7); details: 10 uM conjugate, listed as Methotrexate-CA
T1 construct: isolate, e.g., pull-down, endogenous targets from cells; endogenous in cells; host or cells: HEK293
T1 sequence (P00374 1-187): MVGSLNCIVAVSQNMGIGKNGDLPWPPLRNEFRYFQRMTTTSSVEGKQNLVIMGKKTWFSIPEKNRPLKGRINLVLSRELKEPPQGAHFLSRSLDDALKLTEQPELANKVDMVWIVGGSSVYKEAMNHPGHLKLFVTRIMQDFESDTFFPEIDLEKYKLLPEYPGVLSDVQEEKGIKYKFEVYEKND
Procedure: HEK293 cells were plated into wells of a 6-well plate (2.5×10^5 cells/well). 48 hours post plating, a final concentration of 10 uM of Methotrexate chloroalkane (PBI-5015) was added to 2 wells while control cells were not treated with the drug conjugate. Following equilibrium binding for 2 h, the media was removed, and the cells quickly washed with PBS and lysed in detergent-based lysis buffer for 10 min. Cell lysates were then transferred to an Eppendorf® tube containing 12.5 ul of settled paramagnetic HALOTAG protein beads and incubated with shaking for 15 min. Following binding, the unbound fraction was removed, the HALOTAG paramagnetic beads washed 3×, and the captured targets specifically released from the beads by competition with 150 μM unconjugated methotrexate for 60 mins. The released targets were subjected to mass spec analysis as well as western blot analysis using an anti-DHFR antibody (Sigma).

NANOLUC-DHFR fusion [5] = biological target: T2, NANOLUC-DHFR fusion (Homo sapiens, UniProt P00374); assay: Pull-down of NANOLUC:DHFR from live HEK293 cells onto HALOTAG protein beads; details: 10 μM conjugate, release with 150 μM methotrexate
T2 construct: expressed in transfected cells; host or cells: HEK293
T2 sequence (P00374 1-187): T1 sequence (P00374 1-187)
Procedure: The DNA was diluted 1:50 with a promoterless carrier DNA plasmid (PSI) to a final concentration of 80 ng total DNA per well. Twenty-four hours post-transfection, cells were serum starved for additional 24 h and then incubated with 10 μM PBI-4848 or PBI-5015 while control cells were not treated with the conjugated drug. Following equilibration binding of 2 h, the media was removed, and the cells quickly washed with PBS and lysed in detergent-based lysis buffer for 10 min. Cell lysates were then transferred to wells of a 96-well plate containing 0.5 μl settled paramagnetic HALOTAG protein beads and incubated with shaking for 45 min. Following binding, the unbound fraction was removed, the HALOTAG protein paramagnetic beads washed, 150 μM unconjugated methotrexate added, and the captured NANOLUC:DHFR specifically released from the beads by competition with the unconjugated methotrexate for 60 min. The released NANOLUC:DHFR (+PBI5015 or +PBI 4848) and control samples were detected by NANOGLO luciferase detection reagent.

NANOLUC-DHFR fusion [6] = biological target: T2, NANOLUC-DHFR fusion; assay: Binding affinity to DHFR in live cells using BRET; details: HEK293 live cells, 1 μM PBI-4890 tracer, 2 h
Procedure: Binding affinity to DHFR in live cells was tested using BRET. HEK293 cells in wells of a 96-well plate were transfected using PEI with plasmid DNA encoding a NANOLUC-DHFR fusion. The DNA was diluted 1:50 with a promoterless carrier DNA plasmid (PSI) to a final concentration of 80 ng total DNA per well. Twenty-four hours post-transfection, cells were serum starved for additional 24 hours and then treated with serially diluted PBI-4848 or PBI-5015 in the presence of 1 μM PBI-4890 (TOM-methotrexate derivative). After two hours of equilibrium binding, furimazine (a coelenterazine derivative; Promega Corp.) was added to a final concentration of 20 μM, and BRET measured on a Varioskan luminometer.

Row | Structure (SMILES) | reduction in SAHA potency due to the chloroalkane modification [1] [fold] | reduction in potency relative to SAHA [2] [fold] | pull-down of endogenous SAHA targets (HDACs) ([3]; listed as SAHA-CA) | pull-down of endogenous SAHA targets (HDACs) ([3]; listed as SAHA-chloroalkane) | pull-down of endogenous SAHA targets (HDACs) [4] | pull-down of endogenous SAHA targets (HDACs) ([4]; listed as SAHA-CA) | pull-down of endogenous DHFR (DHFR) | pull-down of Nluc:DHFR fusion (NANOLUC-DHFR fusion [5]) | affinity to DHFR (dose-response BRET curves) (NANOLUC-DHFR fusion [6])
1 | O=C(CCCCCCC(=O)Nc1ccc(CNC(=O)OCCOCCOCCOC(=O)NCCOCCOCCCCCCCl)cc1)NO [PBI-5040] | ~2 | ~2 | specific pull down of all known targets of SAHA | all known targets of SAHA, including a low affinity target (HDAC8) and a low abundance target (HDAC3), were specifically pulled down | all known targets of SAHA, including low affinity target (HDAC8) and low abundance target (HDAC3), can be specifically pull down | specific pull down of all known targets |  |  | 
2 | CN(Cc1cnc2nc(N)nc(N)c2n1)c1ccc(C(=O)NC(CCC(=O)NCCCCCNC(=O)OCCOCCOCCOC(=O)NCCOCCOCCCCCCCl)C(=O)O)cc1 (stereo not shown) [PBI-5015] |  |  |  |  |  |  | specific pull down of DHFR | efficiently pulled down the Nluc:DHFR fusion | lower affinity to DHFR
3 | CN(Cc1cnc2nc(N)nc(N)c2n1)c1ccc(C(=O)NC(CCC(=O)NCCOCCOCCCCCCCl)C(=O)O)cc1 (stereo not shown) [PBI-4848] |  |  |  |  |  |  |  |  | higher affinity to DHFR
